Test results from patent publication EP4069192B1 (Solis Herrera, Arturo, priority 2019, dated 2021).
Values after ≈ are worked out from the molar mass of the structure shown.

Columns and labels:
[1] = system: A549 cells; experiment: cells; conditions: Homo sapiens, A549, 96 h
Method: (§1) Further, a proliferation test was prepared for the same three cell lines: WI-38, A549 and HS 683. 3x10^4 WI-38 cells and 2x10^4 A549 and HS 683. Cells were seeded into each wells in 96-well culture plates in appropriate culture medium with 10% FBS (fetal bovine serum). […] After 96 hours incubation in 37°C/5%CO2 MTT assay was performed for establishing the cell viability.

[2] = system: HS-683; experiment: cells; conditions: Homo sapiens, Hs 683, 96 h
Method: as §1

[3] = system: WI-38 cells; experiment: cells; conditions: Homo sapiens, WI-38, 96 h
Method: as §1

[4] = system: IFN-γ production
Method: (§2) After 24 hours of incubation in 37°C/5%CO2 samples of leukocytes and supernatants were collected.
(§3) Cytokine levels were determined using ELISA kits (BD Biosciences, USA) for human IFNγ, TNF-α and IL-6 and DuoSet for human IL-3 (R&D Systems, USA) according to the producers' instructions. The optical density was measured at 450 nm using a Multiskan RC spectrophotometric reader (Thermo Labsystems, USA), Cytokine concentrations were expressed in pg/ml.

[5] = system: IL-6 production
Method: as §2, §3

[6] = system: TNF-α production
Method: as §2, §3

[7] = system: H1N1 virus; conditions: 0,002 mg/kg each 24 hours; 24 hours after treatment; 15000 treated vs 15000 control chicken, control turned down the production of eggs
[8] = rat, in vivo
[9] = in vivo
[10] = system: A549 (human lung adenocarcinoma epithelial cell line); conditions: A549, 48 hours, MTT
[11] = system: HS683 (human neuronal glioma cell line); conditions: HS-683, 48 hours, MTT
[12] = system: human PBLs (leukocytes of peripheral blood); conditions: 48 hours, MTT
Method: Thereby, cell viability was determined on the basis of the mitochondria-dependent reduction of MTT (3-[4,5-dimethyltiazol 2yl]-2,5-diphenyltetrazolium bromide) to formazan. […] Next cells were treated with 20 µl of MTT. After 3 hours of incubation at 37°C, the formazan blue formed in the cells was dissolved in 100 µl of SDS (sodium dodecylsulfate) for 3 hours in 37°C. The optical density was measured at 570 nm.
After the cytotoxicity tests LC50 (LC50-lethal concentration, 50%-dose required to kill half of the cells after a specified test duration) were estimated for each cell lines and PBLs (leukocytes of peripheral blood). Additionally for PBLs LC10 and LC5 were calculated.
On the basis of the results of MTT assay for human leukocytes the LC50, LC10 and LC5 were evaluated.

[13] = system: cell proliferation; experiment: cells; conditions: Homo sapiens, read-out: doses that inhibit 50% of cell proliferation
[14] = intranasal spray, single 3 mg dose, women, before emergence from general anesthesia; cited from earlier work
[15] = read-out: concentration that inhibits 50% of the proliferation

CN1CCC[C@H]1c1cccnc1
IC50 [1, 15]: 2000 µg/mL (≈ 12.3 mM) | IC99 ([1]; read-out: concentration that inhibits 99% of the proliferation): 5500 µg/mL | IC99 ([2]; read-out: concentration at which 99% of proliferation are inhibited): 5500 µg/mL | IC50 [2, 15]: 2900 µg/mL (≈ 17.9 mM) | IC50 [3, 15]: 1000 µg/mL (≈ 6.16 mM) | IC99 ([3]; read-out: concentration that inhibits a proliferation of 99%): 4500 µg/mL | effect on IFN-γ production [4]: strongly decreases the level of interferon in a dose-dependent manner | effect on IL-6 production [5]: no effect | effect on TNF-α production [6]: increases the level of cytokines in a dose-dependent manner | production of eggs [7]: began to lay off eggs | mortality [8]: 0,625 of 8 rats | healing effect [9]: increased healing effect | LC50 [10]: 4,5 mg/ml | LC50 [11]: 3,5 mg/ml | LC5 [12]: 0,5 mg/ml | LC10 [12]: 1000 µg/mL (≈ 6.16 mM) | IC50 [13]: > 1000 µg/mL | pain scores during the first day post-surgery [14]: significant reduction in pain scores | risks of hypertension of tachycardia [14]: not increasing the risks
